Structures can show the parent of a compound that is named as a salt.

In one assay the target is T1, rh beta tryptase (Homo sapiens, UniProt P20231).
T1 construct: purchased Promega
T1 sequence (P20231 31-275): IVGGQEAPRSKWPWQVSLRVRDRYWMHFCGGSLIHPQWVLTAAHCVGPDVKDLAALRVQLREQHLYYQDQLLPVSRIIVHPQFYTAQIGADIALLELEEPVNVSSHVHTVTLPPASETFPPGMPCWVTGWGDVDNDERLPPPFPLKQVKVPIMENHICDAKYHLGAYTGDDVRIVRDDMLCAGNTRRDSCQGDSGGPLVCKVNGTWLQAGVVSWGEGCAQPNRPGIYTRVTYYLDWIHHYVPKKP
The assay can be described thus: Tryptase inhibition test (cleavage of N-p-tosyl-Gly-Pro-Lys-para-nitroaniline, p-nitroaniline measured at 405 nm). It counts as biochemical. Particulars: concentration at which 50% of the tryptase enzyme activity is inhibited; substrate 0.6 mM, pH 7.4, 37° C. Summed up: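 Screening at 10 μM gives percent inhibition, with IC50 derived for compounds above 70% inhibition. Enzyme: rh beta tryptase, 0.91 U/ml, pH 7.4 Tris HCl (100 mM), 5 mM Ca, 100 mg/ml heparin. After 5 min compound pre-incubation, 0.6 mM pNA substrate cleaved 5 min at 37 °C, monitored at 405 nm.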
In general, IC50 refers to the point on the concentration scale where inhibition reaches its midpoint. A high value points to a need for much substance. Consider `Cn1c(CCc2ccc(C(=N)N)cc2)nc2cc(C(=O)NCCNc3ccccc3)ccc21` [Example 38, 2-[2-(4-Amidinophenyl)-ethyl]-1-methyl-benzimidazol-5-yl-carboxylic Acid-N-(2-phenylamino-ethyl)-amide-dihydrochloride], for which the IC50 stood at 113 nM. On the same count and under the same terms, the result for `CCOCCCn1c(CCc2ccc(C(=N)N)cc2)nc2cc(C(=O)N(Cc3ccc(CN)cc3)Cc3cccc(OC)c3)ccc21` [Example 70, 2-[2-(4-amidinophenyl)ethyl]-1-(3-ethoxy-propyl)-benzimidazol-5-yl-carboxylic acid-N-[4-(amino-methyl)-benzyl]-N-(3-methoxybenzyl)-amide] reads 422 nM. Still for that read-out and setting: the result for `Cn1c(CCc2ccc(C(=N)N)cc2)nc2cc(C(=O)N(CCC(=N)N)CCc3ccccc3)ccc21` [Example 24, 2-[2-(4-Amidinophenyl)-ethyl]-1-methyl-benzimidazol-5-yl-carboxylic Acid-N-(2-amidinoethyl)-N-(2-phenylethyl)-amide-dihydrochloride] reads 16 nM; that for “2-[2-(4-amidinophenyl)ethyl]-1-cyclopropylmethyl-benzimidazol-5-yl-carboxylic acid-N-[4-(amino-methyl)-benzyl]-N-(2-pyridyl)-amide [Example 122]”, 515 nM.

`CCOCCCn1c(CCc2ccc(C(=N)N)cc2)nc2cc(C(=O)N(CCN)c3ccccn3)ccc21` [Example 310, 2-[2-(4-amidinophenyl)ethyl]-1-(3-ethoxypropyl)-benzimidazol-5-yl-carboxylic acid-N-(2-aminoethyl)-N (2-pyridyl)-amide] returned an IC50 of 253 nM. Take `CN(Cc1cccnc1)C(=O)c1ccc2c(c1)nc(CCc1ccc(C(=N)N)cc1)n2C` [Example 1, 2-[2-(4-Amidinophenyl)ethyl]-1-methyl-benzimidazol-5-yl-carboxylic Acid-N-(pyridin-3-yl-methyl)-N-methyl-amide-hydrochloride]: it took 887 nM to reach half-maximal inhibition (IC50). For the molecule `Cn1c(CCc2ccc(C(=N)N)cc2)nc2cc(C(=O)N(CCC(=N)N)c3ccc4ccccc4c3)ccc21` [Example 20, 2-[2-(4-Amidinophenyl)-ethyl]-1-methyl-benzimidazol-5-yl-carboxylic Acid-N-(2-amidinoethyl)-N-(2-naphthyl)-amide-dihydrochloride], it took 310 nM to reach half-maximal inhibition (IC50). Same read-out and setting: the same measure for `CCOCCCn1c(CCc2ccc(C(=N)N)cc2)nc2cc(C(=O)N(CCN)CCCc3ccccc3)ccc21` [Example 358, 2-[2-(4-amidinophenyl)ethyl]-1-(3-ethoxypropyl)-benzimidazol-5-yl-carboxylic acid-N-(2-aminoethyl)-N-(3-phenylpropyl)-amide]: 169 nM. Still for that read-out and setting: the result for `Cn1c(CCc2ccc(C(=N)N)cc2)nc2cc(C(=O)N(CCNCc3ccccc3)C3CCCCC3)ccc21` [Example 36, 2-[2-(4-Amidinophenyl)-ethyl]-1-methyl-benzimidazol-5-yl-carboxylic Acid-[N-(2-(N′-benzylamino)-ethyl)-N-cyclohexyl-amide]-dihydrochloride] reads 67 nM.

The assay is the same for the next values; noted with them: inhibition of rh beta tryptase at 10 μM test substance; substrate N-p-tosyl-Gly-Pro-Lys-para-nitroaniline 0.6 mM, pH 7.4, 37° C., 5 minutes.
What is called inhibition is the change of the read-out against control, counted positive when it falls. Low readings indicate a response near the control, high ones a response far below the control. On to `CCCCN(Cc1ccc(CN)cc1)C(=O)c1ccc2c(c1)nc(CCc1ccc(C(=N)N)cc1)n2CCc1ccccc1` [Example 91, 2-[2-(4-amidinophenyl)ethyl]-1-(2-phenylethyl)-benzimidazol-5-yl-carboxylic acid-N-[4-(amino-methyl)-benzyl]-N-n-butyl-amide], for which at 10 µM the inhibition was 62%.

The molecule `CCOCCCn1c(CCc2ccc(C(=N)N)cc2)nc2cc(C(=O)N(Cc3ccc(CN)cc3)Cc3cccc(OC)c3)ccc21` [Example 70, 2-[2-(4-amidinophenyl)ethyl]-1-(3-ethoxy-propyl)-benzimidazol-5-yl-carboxylic acid-N-[4-(amino-methyl)-benzyl]-N-(3-methoxybenzyl)-amide] came in with an inhibition at 10 µM of 63%. For the molecule “2-[2-(4-amidinophenyl)ethyl]-1-cyclopropylmethyl-benzimidazol-5-yl-carboxylic acid-N-[4-(amino-methyl)-benzyl]-N-(2-pyridyl)-amide [Example 122]”, the “% Inhibition (10 μM)” value is 70%. In turn, `CCCCN(CCN)C(=O)c1ccc2c(c1)nc(CCc1ccc(C(=N)N)cc1)n2CCCN1CCN(c2ccccc2C)CC1` [Example 288, 2-[2-(4-amidinophenyl)ethyl]-1-{3-[4-(2-methylphenyl)-piperazin-1-yl]-propyl}-benzimidazol-5-yl-carboxylic acid-N-(2-aminoethyl)-N-n-butyl-amide] came in with an inhibition at 10 µM of 65%.

As for `N=C(N)c1ccc(CCc2nc3cc(C(=O)N(Cc4ccc(CN)cc4)Cc4cccc(C(F)(F)F)c4)ccc3n2CC2CCCO2)cc1` (stereo not drawn) [Example 210, 2-[2-(4-amidinophenyl)ethyl]-1 (tetrahydrofuran-2-yl-methyl)-benzimidazol-5-yl-carboxylic acid-N-[4-(amino-methyl)-benzyl]-N-(3-trifluoromethylbenzyl)-amide], testing at 10 µM gave an inhibition of 59%. Still for that read-out and setting: the same measure for `N=C(N)c1ccc(CCc2nc3cc(C(=O)N(CCCc4ccccc4)Cc4ccc(CN)cc4)ccc3n2CC2CCCO2)cc1` (stereo not drawn) [Example 178, 2-[2-(4-amidinophenyl)ethyl]-1-(tetrahydrofuran-2-yl-methyl)-benzimidazol-5-yl-carboxylic acid-N-[4-(amino-methyl)-benzyl]-N-(3-phenylpropyl)-amide]: 51%. As for `CCOCCCn1c(CCc2ccc(C(=N)N)cc2)nc2cc(C(=O)N(CCN)c3ccccn3)ccc21` [Example 310, 2-[2-(4-amidinophenyl)ethyl]-1-(3-ethoxypropyl)-benzimidazol-5-yl-carboxylic acid-N-(2-aminoethyl)-N (2-pyridyl)-amide], the “% Inhibition (10 μM)” value was 70%. The same measure, in the same setting: the result for `N=C(N)c1ccc(CCc2nc3cc(C(=O)N(Cc4ccc(Cl)cc4)Cc4ccc(CN)cc4)ccc3n2CCCNC(=O)Cc2ccccc2)cc1` [Example 184, 2-[2-(4-amidinophenyl)ethyl]-1-[3-(benzylcarbonylamino)-propyl]-benzimidazol-5-yl-carboxylic acid-N-[4-(amino-methyl)-benzyl]-N-(4-chlorbenzyl)-amide] reads 72%.

For “2-[2-(4-amidinophenyl)ethyl]-1-(2 thiophenyl-methyl)-benzimidazol-5-yl-carboxylic acid-N-[4-(amino-methyl)-benzyl]-N-(3-pyridyl)-amide [Example 147]”, the “% Inhibition (10 μM)” value is reported as 51%. Consider `N=C(N)c1ccc(CCc2nc3cc(C(=O)N(Cc4ccc(Cl)cc4)Cc4ccc(CN)cc4)ccc3n2CCCN2CCOCC2)cc1` [Example 193, 2-[2-(4-amidinophenyl)ethyl]-1-[3-(morpholin-4-yl)-propyl]-benzimidazol-5-yl-carboxylic acid-N-[4-(amino-methyl)-benzyl]-N-(4-chlorbenzyl)-amide], for which the “% Inhibition (10 μM)” value came to 59%. `COc1cccc(CN(Cc2ccc(CN)cc2)C(=O)c2ccc3c(c2)nc(CCc2ccc(C(=N)N)cc2)n3CCCN2CCN(c3ccccc3C)CC2)c1` [Example 80, 2-[2-(4-amidinophenyl)ethyl]-1-{3-[4-(2-methylphenyl)-piperazin-1-yl]-propyl}-benzimidazol-5-yl-carboxylic acid-N-[4-(amino-methyl)-benzyl]-N-(3-methoxybenzyl)-amide] returned an inhibition at 10 µM of 53%. In turn, `CCOCCCn1c(CCc2ccc(C(=N)N)cc2)nc2cc(C(=O)N(CCN)CCCc3ccccc3)ccc21` [Example 358, 2-[2-(4-amidinophenyl)ethyl]-1-(3-ethoxypropyl)-benzimidazol-5-yl-carboxylic acid-N-(2-aminoethyl)-N-(3-phenylpropyl)-amide] gave an inhibition at 10 µM of 77%.

“2-[2-(4-amidinophenyl)ethyl]-1-[3-(morpholin-4-yl)-propyl]-benzimidazol-5-yl-carboxylic acid-N-[4-(amino-methyl)-benzyl]-N-(2-pyridyl)-amide [Example 129]”: the “% Inhibition (10 μM)” value turned out to be 63%. `CCCCN(CCN)C(=O)c1ccc2c(c1)nc(CCc1ccc(C(=N)N)cc1)n2CC1CCCO1` (stereo not drawn) [Example 290, 2-[2-(4-amidinophenyl)ethyl]-1-(tetrahydrofuran-2-yl-methyl)-benzimidazol-5-yl-carboxylic acid-N-(2-aminoethyl)-N-n-butyl-amide] returned an inhibition at 10 µM of 70%. Same read-out and setting: the same measure for `Cc1ccccc1N1CCN(CCCn2c(CCc3ccc(C(=N)N)cc3)nc3cc(C(=O)N(CCN)Cc4ccccc4)ccc32)CC1` [Example 304, 2-[2-(4-amidinophenyl)ethyl]-1-{3-[4-(2-methylphenyl)-piperazin-1-yl]-propyl}-benzimidazol-5-yl-carboxylic acid-N-(2-aminoethyl)-N-benzyl-amide]: 51%.

Source of the values: US6512000B1, “Aminocarbonyl-substituted benzimidazoles having tryptase-inhibitory activity” (Boehringer Ingelheim Pharma KG, priority 1999, dated 2003).
